Measurements: patent publication US8796302B2 (priority 2004, dated 2014)

Columns and labels:
[1] = tested on: dopaminergic neurons in rat primary mesencephalic neuron-glia cultures; test: [3H]DA uptake in LPS-treated mesencephalic neuron-glia cultures; format: cell-based; conditions: LPS 10 ng/ml, 7 days; for LPS-induced decrease in [3H]-dopamine uptake: 30 min pretreatment
Description: Neuron-glia cultures were prepared from the ventral mesencephalic tissues of embryonic day 13-14 Fisher F344 rats or day 12-13 wild-type C57BL/6J (gp91phox^+/+) mice. Dissociated cells were seeded at 1×10^5/well and 5×10^5/well to poly-D-lysine-coated 96-well and 24-well plates, respectively. Cells were maintained at about 37° C. in a humidified atmosphere of 5% CO2 and 95% air, in minimal essential medium (MEM) containing 10% fetal bovine serum (FBS), 10% horse serum (HS), 1 gm/l glucose, 2 mM L-glutamine, 1 mM sodium pyruvate, 100 μM nonessential amino acids, 50 U/ml penicillin, and 50 μg/ml streptomycin. Seven-day-old cultures were used for treatment.
Dextromethorphan (obtained from Sigma-Aldrich (St. Louis, Mo.) as dextromethorphan hydrobromide) was freshly prepared as a stock solution (1 mM) in ddH2O and sterile-filtered right before use. For treatment of the cultures, the DM was serially diluted (10×) with fresh culture medium containing 2% of fetal bovine and horse serum. The neuron-glia cultures were pretreated with 10^−5-10^−17M DM 30 minutes prior to treatment with 10 ng/ml of LPS.
Seven days after treatment, the degeneration of dopaminergic neurons was assessed by [^3H]-dopamine (DA) uptake assays. The [^3H]-DA uptake assays were performed as follows. Cultures were washed twice with warm Krebs-Ringer buffer (KRB, 16 mM sodium phosphate, 119 mM NaCl, 4.7 mM KCl, 1.8 mM CaCl2, 1.2 mM MgSO4, 1.3 mM EDTA, and 5.6 mM glucose; pH7.4) and then incubated for about 20 minutes at about 37° C. with 1 μM [^3H]-DA in KRB in order to allow for the uptake of DA. Afterwards, the cultures were washed (three times) with ice-cold KRB and the cells were collected in 1 N NaOH. Radioactivity was determined by liquid scintillation counting.
This example tests whether or not post-treatment with DM is still neuroprotective in LPS-induced neurotoxicity. Neuron-glia co-cultures as prepared in Example 1 were first treated with LPS (20 ng/ml) for twelve hours, and then LPS was removed by removing the media from the cultures and washing twice with PBS. Different concentrations of DM (10^−5, 10^−10, and 10^−14 M) were then added to the cultures and incubation was continued for another 6 or 7 days. The DA uptake and the superoxide production were measured as in Example 1 and 5.
Neuron-glia cell cultures were prepared as in Example 1, and pretreated with the various peptide fragments of Table 1 (peptide fragments were obtained from BACHEM) for 30 minutes followed by addition of 5 ng/ml of LPS. DA neurotoxicity was measured as an Example 1 at 7 days post treatment.
DA neurotoxicity was measured at 7 days post treatment as in Example 1. Dopaminergic neuronal death was determined at 7 days post treatment using immunocytochemical staining as in Example 2.
Neuron-glia cultures were prepared from the ventral mesencephalic tissues of embryonic day 13-14 rats. Dissociated cells were seeded at 1×10^5/well and 5×10^5/well to poly-D-lysine-coated 96-well and 24-well plates, respectively.

[2] = tested on: dopaminergic neurons in mesencephalic neuron-enriched cultures; test: [3H]DA uptake in Aβ- or MPP+-treated neuron-enriched cultures; format: cell-based, rat
Description: Neuron-enriched culture were prepared from the ventral mesencephalic tissues of embryonic day 13-14 Fisher F344 rats (Charles River Laboratories, Raleigh, N.C.) as follows. Dissociated cells were seeded at 1×10^5/well in 96-well and 5×10^5/well to poly-D-lysine-coated 96-well and 24-well plates, respectively. Glial proliferation was suppressed by the inclusion of cytosine β-D-arabinocide (5-10 μM). Seven day old cultures were used for treatment, which were composed of 91% neurons, 9% astrocytes, and <0.1% microglia. The cultures were pre-treated with OM, 10^−5 M, 10^−10 M, and 10^−14M DM 30 minutes before treatment with vehicle alone, 4 μM Aβ or 0.5 μM MPP^+5 as in Example 1. DA uptake was also measured as in Example 1 and the results are expressed in both FIGS. 4A and B as a percentage of the control cultures and are the mean±S.E.M. of four individual experiments with triplicates in each experiment. […]
Neuron-enriched cultures seeded in 24-well culture plates were pretreated for 48 hours with 0.6 mM VPA followed by treatment with 0.5 μM MPP^+. [^3H]DA uptake was measured 7 days after MPP^+ treatment according to procedures described in Example 1. Results are expressed as mean±SEM of percentage of vehicle control from three independent experiments performed in duplicate. *,p<0.05 compared with vehicle-treated cultures. †, p<0.05 compared with corresponding MPP^+-treated cultures.

[3] = tested on: microglia in neuron-glia cultures; test: OX-42 immunostaining of LPS-induced microglial activation; format: cell-based, rat; conditions: for LPS-induced activation of microglia (OX-42): LPS 5 ng/ml, 12 h
Description: Dopaminergic neurons were recognized with the anti-TH antibody and microglia were detected with the OX-42 antibody, which recognizes the CR3 receptor. This was accomplished as follows: 3.7% formaldehyde-fixed cultures were treated with 1% hydrogen peroxide for about 10 minutes followed by sequential incubation with a blocking solution (30 min), primary antibody (overnight, 4° C.), biotinylated secondary antibody (2 hours), and ABC reagents (40 min). The color was developed with 3,3′-diaminobenzidine.
Neuron-glia cultures were prepared and treated with vehicle, LPS (5 ng/ml), or LPS plus DM respectively as in Example 1. Twelve hours later, cultures were immunostained with anti-OX-42 antibody. Images shown are representative of three separate experiments. The immunostaining and morphological analysis was accomplished as in Example 2.
Mesencephalic neuron-glia cultures were pretreated with VPA for 48 h and then treated with 20 ng/ml LPS for 72 h, as described in Example 19. Immunostaining with an antibody against OX-42 was then performed, as described in Example 19.

TNFα = TNFα release (ELISA) after LPS; format: cell-based, rat
Description: Different pro-inflammatory factors that are released from microglia were also monitored. The production of NO was determined by measuring the accumulated levels of nitrite in the supernatant with the Griess reagent, and release of TNFα was measured with a rat TNFα enzyme-linked immunosorbent assay kit from R & D System (Minneapolis, Minn.).
Mesencephalic neuron-glia cultures were pretreated with VPA or vehicle control for 48 hours prior to stimulation with 20 ng/ml LPS. The release of TNF-α was determined 3 hours after LPS treatment. The release of TNFα, was measured with a rat TNFα enzyme-linked immunosorbent assay kit from R & D System (Minneapolis, Minn.).

[4] = tested on: intracellular reactive oxygen species; test: Intracellular ROS (DCFH oxidation) after LPS; format: cell-based, rat
Description: The production of intracellular reactive oxygen species was measured by DCFH oxidation. The DCFH-DA (Molecular Probes, Eugene, Oreg.) reagent passively diffuses into cells in which it is hydrolyzed by intracellular esterase to liberate 2′-7′-dichlorofluoressein which, during reaction with oxidizing species, yields a highly fluorescent compound 2′-7′-dichlorofluorescein (DCF) that is trapped inside the cell. For each measurement, a fresh stock solution of CM-H2-DCFDA (5 mM) was prepared in dimethylsulfoxide. CM-H2-DCFDA, diluted to a final concentration of 1 μM in phenol red-free HBSS containing 2% FBS and 2% HS, was added to cultures and incubated for about 30 min at about 37° C. After washing two times with warm HBSS, vehicle or stimulators in HBSS were added to cultures. After incubation for about 30 min at about 37° C., fluorescence intensity was measured at 485 nm for excitation and 530 nm for emission using a SpectraMax Gemini XS fluorescence microplate reader (Molecular Devices).
The data are expressed as the percent of the control cultures and are the mean±SEM of three experiments performed in triplicate. *P<0.05, **P<0.01, compared to control.
Assay of intracellular ROS is performed as follows. 5-(and −6)-Chloromethyl-2′,7′-dichlorodihydrofluorescein diacetate (CM-H2-DCFDA) (Molecular Probes, Eugene, Oreg.), a chloromethyl derivative of H2-DCFDA, passively diffuses into cells in which it is hydrolyzed by intracellular esterases to liberate 2′-7′-dichlorofluorescein (DCF) which, during reaction with oxidizing species, yields a highly fluorescent compound that is trapped inside the cell. […] Cells were seeded at 1×10^5/well in 96-well plates for one day followed by treatment with 0.6 mM or 1.2 mM VPA for 24 h. The cultures were used for the assay of intracellular ROS.
After washing two times with warm Hank's balanced salt solution (HBSS), CM-H2-DCFDA, diluted to a final concentration of 1 μM in phenol red-free HBSS, was added to cultures and incubated for 30 min at 37° C. Then cultures were added with 0.6 or 1.2 mM VPA in HBSS again for 30 min and followed the treatment with 100 ng/ml LPS for 2 hours at 37° C., fluorescence intensity was measured at 485 nm for excitation and 530 nm for emission using a SpectraMax Gemini XS fluorescence microplate reader (Molecular Devices, Sunnyvale, Calif.).

[5] = DM 10^−5 M and 10^−14 M pretreatment

## Oc1ccc2c(c1)[C@@]13CCCC[C@H]1[C@@H](C2)NCC3 [3-HM, 3-hydroxymorphinan]
[1]; 3-HM 1-5 μM pretreatment
  LPS-induced reduction in DA uptake: significantly attenuated the LPS-induced reduction in DA uptake

## COc1ccc2c(c1)[C@@]13CCCC[C@H]1[C@@H](C2)N(C)CC3 [DM, d-3-methoxy-N-methylmorphinan]
[1]; DM 10^−5 and 10^−6 M
  LPS-induced decrease in [3H]-dopamine uptake: attenuated the LPS-induced decrease
[1]; DM 10^−8 to 10^−12 M
  LPS-induced decrease in [3H]-dopamine uptake: no protective effects
[2]; DM 10^−5, 10^−10, 10^−14 M, Aβ (1-42) 4 μM, 9 days, neuron-enriched
  Aβ (1-42)-induced reduction of DA uptake: did not significantly alter
[3]; DM 10^−5 M and 10^−14 M
  LPS-induced activation of microglia (OX-42): prevented the LPS-induced activation of microglia
[3]; DM 10^−10 M
  LPS-induced activation of microglia (OX-42): didn't significantly inhibit microglia activation
TNFα; [5]
  LPS-induced increase in the release of TNFα: significantly decreased
TNFα; DM 10^−10 M pretreatment
  LPS-induced increase in the release of TNFα: no significant reduction
[4]; [5]
  LPS-induced increase in intracellular reactive oxygen species: significantly decreased
[4]; DM 10^−10 M pretreatment
  LPS-induced increase in intracellular reactive oxygen species: no significant reduction

## CCCC(CCC)C(=O)O [VPA, Valproic acid]
[2]; VPA 0.6 mM, 48 hours pretreatment, MPP+ 0.5 μM, 7 days
  MPP+-induced degeneration of DA neurons (DA uptake): blocked
[3]; VPA 0.4 or 0.6 mM, 48 h pretreatment, LPS 20 ng/ml 72 h
  LPS-stimulated activation of microglia (OX-42): suppressed
[3]; VPA alone
  microglia activation (OX-42), VPA alone: did not show significant effects on microglia activation
TNFα; VPA 0.2 mM, 48 h pretreatment, 3 h after LPS 20 ng/ml
  LPS-induced TNFα production: significant inhibited
TNFα; VPA 0.4 or 0.6 mM, 48 h pretreatment, 3 h after LPS 20 ng/ml
  LPS-induced production of TNFα: completely blocked
[4]; VPA 0.6 or 1.2 mM pretreatment, enriched microglia, LPS 100 ng/ml 2 h
  LPS-induced increase of iROS level: completely blocked
[4]; VPA alone 0.6 mM, enriched microglia
  basal iROS levels: reduced basal iROS levels
